# In patent US10227361B2, “Fused imidazobenzothiazole compounds” (TORRENT PHARMACEUTICALS LIMITED, priority 2014, dated 2019):
# Target: T1, purified recombinant human p38 alpha MAPK (Homo sapiens, UniProt Q16539)
# T1 construct: purchased Millipore, USA
# Test: Inhibition of p38 alpha MAPK activity: TR-FRET kinase assay
# Type: biochemical
# Settings: Concentration 1 μM
# Procedure: Inhibition of p38 Alpha MAPK Activity: Time-Resolved Fluorescence Resonance Energy Transfer Kinase Standard Assay (TR-FRET Assay)
# Compounds of present invention at various concentrations were premixed with DMSO. The experiment was initiated by mixing 0.5% 1.0% DMSO as vehicle/compounds with purified recombinant human p38 alpha MAPK (Millipore, USA) in the wells and 15 min incubation at RT. Thereafter, 30 nM of Biotinylated GST-ATF2 (Activation Transcription Factor2) and 100 μM of ATP were added in to the wells containing reaction mixture, followed by reincubation for 60 minutes at RT. Reaction was terminated by addition of 10 mM of EDTA and detection reagent containing anti-phosphothreonine ATF2 antibody (Perkin Elmer, USA) labelled with europium chelate and APC (Allophycocyanin) labeled streptavidin, into the reaction mixture which was further incubated for 60 minutes at room temperature. The degree of phosphorylation of the substrate (GST-ATF2) was measured using Envision multimode reader (Perkin Elmer). Percentage inhibition of p38 kinase activity was calculated by determining ratio of specific europium 665 nm energy transfer signal to reference 615 nm signal.
# T1 sequence (Q16539 whole entry): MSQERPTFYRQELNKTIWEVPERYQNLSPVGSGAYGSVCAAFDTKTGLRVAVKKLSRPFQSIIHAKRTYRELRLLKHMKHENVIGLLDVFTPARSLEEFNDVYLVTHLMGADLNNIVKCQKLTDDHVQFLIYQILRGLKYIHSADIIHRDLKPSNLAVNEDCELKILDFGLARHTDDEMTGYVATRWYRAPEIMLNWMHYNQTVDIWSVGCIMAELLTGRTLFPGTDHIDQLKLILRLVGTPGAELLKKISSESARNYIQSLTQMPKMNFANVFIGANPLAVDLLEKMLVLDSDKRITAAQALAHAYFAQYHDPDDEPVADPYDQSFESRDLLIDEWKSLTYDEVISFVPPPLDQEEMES
row,P38α Inhibition,Molecule
1,+++++ (+++++ = Inhibition ≥80% ≤ 100%),"1-(3-tert-butyl-1-phenyl-1H-pyrazol-5-yl)-3-(2-{[3-(hydroxymethyl)-2-methylimidazo[2,1-b][1,3]benzothiazol-7-yl]oxy}benzyl)urea [Compound 38]"

# Same assay, conditions: Concentration 1 μM; read-out: P38α Inhibition
row,Molecule,inhibition at 1 µM [%]
1,"Cc1ccc(-n2nc(C(C)(C)C)cc2NC(=O)Nc2ccc(Oc3ccc4c(c3)sc3nc(C(=O)NCCO)cn34)cc2)cc1 [Compound 4, 7-[4-({[3-tert-butyl-1-(4-methylphenyl)-1H-pyrazol-5-yl]carbamoyl}amino)phenoxy]-N-(2-hydroxyethyl)imidazo[2,1-b][1,3]benzothiazole-2-carboxamide]",80 to 100
2,"CCOC(=O)c1cnc2sc3cc(Oc4ccc(NC(=O)Nc5cc(C(C)(C)C)nn5-c5ccc(OC)c(Cl)c5)cc4)ccc3n12 [Compound 5, ethyl 7-[4-({[3-tert-butyl-1-(3-chloro-4-methoxyphenyl)-1H-pyrazol-5-yl]carbamoyl}amino)phenoxy]imidazo[2,1-b][1,3]benzothiazole-3-carboxylate]",20 to 40
3,"COc1ccc(-n2nc(C(C)(C)C)cc2NC(=O)Nc2ccc(Sc3ccc4c(c3)sc3ncc(C(=O)O)n34)cc2)cc1 [Compound 10, 7-{[4-({[3-tert-butyl-1-(4-methoxyphenyl)-1H-pyrazol-5-yl]carbamoyl}amino)phenyl]sulfanyl}imidazo[2,1-b][1,3]benzothiazole-3-carboxylic acid]",80 to 100
4,"CCOC(=O)c1cnc2sc3cc(Oc4ccccc4CNC(=O)Nc4cc(C(C)(C)C)nn4-c4ccc(OC)cc4)ccc3n12 [Compound 12, ethyl 7-{2-[({[3-tert-butyl-1-(4-methoxyphenyl)-1H-pyrazol-5-yl]carbamoyl}amino)methyl]phenoxy}imidazo[2,1-b][1,3]benzothiazole-3-carboxylate]",80 to 100
5,"CC(C)(C)c1cc(NC(=O)Nc2ccc(Oc3ccc4c(c3)sc3ncc(C(=O)O)n34)cc2)n(-c2ccc(O)c(Cl)c2)n1 [Compound 8, 7-[4-({[3-tert-butyl-1-(3-chloro-4-hydroxyphenyl)-1H-pyrazol-5-yl]carbamoyl}amino)phenoxy]imidazo[2,1-b][1,3]benzothiazole-3-carboxylic acid]",80 to 100
6,"CCOC(=O)c1cnc2sc3cc(Oc4ccccc4CNC(=O)Nc4cc(C(C)(C)C)nn4-c4ccc(O)cc4)ccc3n12 [Compound 17, Ethyl 7-{2-[({[3-tert-butyl-1-(4-hydroxyphenyl)-1H-pyrazol-5-yl]carbamoyl}amino)methyl]phenoxy}imidazo[2,1-b][1,3]benzothiazole-3-carboxylate]",80 to 100
7,"COc1ccc(-n2nc(C(C)(C)C)cc2NC(=O)Nc2ccc(Oc3ccc4c(c3)sc3ncc(C(=O)NCCO)n34)cc2)cc1Cl [Compound 7, 7-[4-({[3-tert-butyl-1-(3-chloro-4-methoxyphenyl)-1H-pyrazol-5-yl]carbamoyl}amino)phenoxy]-N-(2-hydroxyethyl)imidazo[2,1-b][1,3]benzothiazole-3-carboxamide]",60 to 80
8,"CC(C)(C)c1cc(NC(=O)Nc2ccc(Oc3ccc4c(c3)sc3nc(C(=O)NCCN5CCOCC5)cn34)cc2)n(-c2ccc(O)c(Cl)c2)n1 [Compound 1, 7-[4-({[3-tert-butyl-1-(3-chloro-4-hydroxyphenyl)-1H-pyrazol-5-yl]carbamoyl}amino)phenoxy]-N-[2-(morpholin-4-yl)ethyl]imidazo[2,1-b][1,3]benzothiazole-2-carboxamide]",40 to 60
9,"Cc1ccc(-n2nc(C(C)(C)C)cc2NC(=O)Nc2ccc(Oc3ccc4c(c3)sc3nc(C(=O)NCCN5CCOCC5)cn34)cc2)cc1 [Compound 2, 7-[4-({[3-tert-butyl-1-(4-methylphenyl)-1H-pyrazol-5-yl]carbamoyl}amino)phenoxy]-N-[2-(morpholin-4-yl)ethyl]imidazo[2,1-b][1,3]benzothiazole-2-carboxamide]",60 to 80
10,"Cc1ccc(-n2nc(C(C)(C)C)cc2NC(=O)Nc2ccc(Oc3ccc4c(c3)sc3nc(C(=O)NC(CO)c5ccccc5)cn34)cc2)cc1 (stereo not shown) [Compound 3, 7-[4-({[3-tert-butyl-1-(4-methylphenyl)-1H-pyrazol-5-yl]carbamoyl}amino)phenoxy]-N-(2-hydroxy-1-phenylethyl)imidazo[2,1-b][1,3]benzothiazole-2-carboxamide]",40 to 60
11,"CC(C)(C)c1cc(NC(=O)NCc2ccccc2Oc2ccc3c(c2)sc2ncc(C(=O)O)n23)n(-c2ccc(O)cc2)n1 [Compound 13, 7-{2-[({[3-tert-butyl-1-(4-hydroxyphenyl)-1H-pyrazol-5-yl]carbamoyl}amino)methyl]phenoxy}imidazo[2,1-b][1,3]benzothiazole-3-carboxylic acid]",80 to 100

# The next lines start with the values.
row,inhibition at 1 µM [%],Molecule
1,≤ 20,"CCOC(=O)c1cnc2sc3cc(Oc4ccccc4CNC(=O)NC4CCCCC4)ccc3n12 [Compound 46, ethyl 7-(2-{[(cyclohexylcarbamoyl)amino]methyl}phenoxy)imidazo[2,1-b][1,3]benzothiazole-3-carboxylate]"
2,60 to 80,"CC(C)(C)c1cc(NC(=O)NCc2ccccc2Oc2ccc3c(c2)sc2ncc(CN4CCC(O)CC4)n23)n(-c2ccc(O)c(Cl)c2)n1 [Compound 65, 1-[3-tert-butyl-1-(3-chloro-4-hydroxyphenyl)-1H-pyrazol-5-yl]-3-[2-({3-[(4-hydroxypiperidin-1-yl)methyl]imidazo[2,1-b][1,3]benzothiazol-7-yl}oxy)benzyl]urea]"
3,≤ 20,"CCOC(=O)c1cnc2sc3cc(Oc4ccccc4CNC(=O)NC(CO)c4ccccc4)ccc3n12 (stereo not shown) [Compound 42, ethyl 7-[2-({[(2-hydroxy-1-phenylethyl)carbamoyl]amino}methyl)phenoxy]imidazo[2,1-b][1,3]benzothiazole-3-carboxylate]"
4,60 to 80,"CC(C)(C)c1cc(NC(=O)Nc2ccc(Oc3ccc4c(c3)sc3ncc(CO)n34)cc2)n(-c2ccc(O)c(Cl)c2)n1 [Compound 27, 1-[3-tert-butyl-1-(3-chloro-4-hydroxyphenyl)-1H-pyrazol-5-yl]-3-(4-{[3-(hydroxymethyl)imidazo[2,1-b][1,3]benzothiazol-7-yl]oxy}phenyl)urea]"
5,60 to 80,"Cc1cnc(-c2cnc3sc4cc(Oc5ccccc5CNC(=O)Nc5cc(C(C)(C)C)nn5-c5ccc(O)c(Cl)c5)ccc4n23)o1 [Compound 64, 1-[3-tert-butyl-1-(3-chloro-4-hydroxyphenyl)-1H-pyrazol-5-yl]-3-(2-{[3-(5-methyl-1,3-oxazol-2-yl)imidazo[2,1-b][1,3]benzothiazol-7-yl]oxy}benzyl)urea]"
6,80 to 100,"CCOC(=O)CSCc1cn2c(n1)sc1cc(Oc3ccccc3CNC(=O)Nc3cc(C(C)(C)C)nn3-c3ccc(O)c(Cl)c3)ccc12 [Compound 30, ethyl {[(7-{2-[({[3-tert-butyl-1-(3-chloro-4-hydroxyphenyl)-1H-pyrazol-5-yl]carbamoyl}amino)methyl]phenoxy}imidazo[2,1-b][1,3]benzothiazol-2-yl)methyl]sulfanyl}acetate]"
7,≤ 20,"CCOC(=O)c1cnc2sc3cc(Oc4ccc(NC(=O)Nc5cc(C(C)(C)C)nn5-c5ccc(O)c(Cl)c5)cc4)ccc3n12 [Compound 26, ethyl 7-[4-({[3-tert-butyl-1-(3-chloro-4-hydroxyphenyl)-1H-pyrazol-5-yl]carbamoyl}amino)phenoxy]imidazo[2,1-b][1,3]benzothiazole-3-carboxylate]"
8,80 to 100,"COCc1c(C)nc2sc3cc(Oc4ccccc4CNC(=O)Nc4ccc(Cl)c(C(F)(F)F)c4)ccc3n12 [Compound 49, 1-[4-chloro-3-(trifluoromethyl)phenyl]-3-(2-{[3-(methoxymethyl)-2-methylimidazo[2,1-b][1,3]benzothiazol-7-yl]oxy}benzyl)urea]"
9,60 to 80,"COCc1c(C)nc2sc3cc(Oc4ccccc4CNC(=O)Nc4ccc(OC)c(Cl)c4)ccc3n12 [Compound 48, 1-(3-chloro-4-methoxyphenyl)-3-(2-{[3-(methoxymethyl)-2-methylimidazo[2,1-b][1,3]benzothiazol-7-yl]oxy}benzyl)urea]"
10,80 to 100,"CC(C)(C)c1cc(NC(=O)NCc2ccccc2Oc2ccc3c(c2)sc2ncc(C(=O)NCCO)n23)n(-c2ccc(O)c(Cl)c2)n1 [Compound 20, 7-{2-[({[3-tert-butyl-1-(3-chloro-4-hydroxyphenyl)-1H-pyrazol-5-yl]carbamoyl}amino)methyl]phenoxy}-N-(2-hydroxyethyl)imidazo[2,1-b][1,3]benzothiazole-3-carboxamide]"
11,≤ 20,"O=C(Nc1ccc(Oc2ccc3c(c2)sc2ncc(C(=O)O)n23)cc1)NC(CO)c1ccccc1 (stereo not shown) [Compound 41, 7-(4-{[(2-hydroxy-1-phenylethyl)carbamoyl]amino}phenoxy)imidazo[2,1-b][1,3]benzothiazole-3-carboxylic acid]"
12,80 to 100,"CC(C)(C)c1cc(NC(=O)NCc2ccccc2Oc2ccc3c(c2)sc2ncc(C(=O)NC(CO)CO)n23)n(-c2ccc(O)c(Cl)c2)n1 [Compound 21, 7-{2-[({[3-tert-butyl-1-(3-chloro-4-hydroxyphenyl)-1H-pyrazol-5-yl]carbamoyl}amino)methyl]phenoxy}-N-(1,3-dihydroxypropan-2-yl)imidazo[2,1-b][1,3]benzothiazole-3-carboxamide]"
13,≤ 20,"CCOC(=O)c1cnc2sc3cc(Oc4ccccc4CNC(=O)Nc4cc(OC)cc(OC)c4)ccc3n12 [Compound 45, ethyl 7-[2-({[(3,5-dimethoxyphenyl)carbamoyl]amino}methyl)phenoxy]imidazo[2,1-b][1,3]benzothiazole-3-carboxylate]"
